Experimental data as given in ChEMBL document CHEMBL5584208, “Conformationally constrained potent inhibitors for enhancer of zeste homolog 2 (EZH2)” (Bioorg Med Chem Lett, 2024).

Legend:
WSUDLCL2 = assay: Antiproliferative activity against human WSUDLCL2 cells harboring EZH2 Y641F mutant; format: functional, cell-based
Pfeiffer [1] = assay: Antiproliferative activity against human Pfeiffer cells harboring EZH2 A677G mutant; format: functional, cell-based
KARPAS-422 [2] = assay: Antiproliferative activity against human KARPAS-422 cells harboring EZH2 Y641N mutant; format: functional, cell-based
[3] = Half life in mouse at 10 mg/kg, po; format: ADME, organism-based; details: in vivo
[4] = Half life in mouse at 2 mg/kg, iv; format: ADME, organism-based; details: in vivo
[5] = Cmax in mouse at 10 mg/kg, po; format: ADME, organism-based; details: in vivo
[6] = Cmax in mouse at 2 mg/kg, iv; format: ADME, organism-based; details: in vivo
[7] = AUC (0 to t) in mouse at 10 mg/kg, po; format: ADME, organism-based; details: in vivo
[8] = AUC (0 to t) in mouse at 2 mg/kg, iv; format: ADME, organism-based; details: in vivo
[9] = AUC (0 to infinity) in mouse at 10 mg/kg, po; format: ADME, organism-based; details: in vivo
[10] = AUC (0 to infinity) in mouse at 2 mg/kg, iv; format: ADME, organism-based; details: in vivo
[11] = Volume of distribution at steady state in mouse at 2 mg/kg, iv; format: ADME, organism-based; details: in vivo, read-out: Vdss
[12] = Clearance in mouse at 2 mg/kg, iv; format: ADME, organism-based; details: in vivo
[13] = Oral bioavailability in mouse at 10 mg/kg; format: ADME, organism-based; details: in vivo
[14] = Metabolic stability in mouse liver microsomes assessed as half life; format: ADME, Microsome
[15] = Metabolic stability in mouse liver microsomes assessed as intrinsic clearance in hepatocytes measured per million cells; format: ADME, Microsome
[16] = Metabolic stability in mouse liver microsomes assessed as intrinsic clearance in liver; format: ADME, Microsome; details: read-out: CLH
[17] = Metabolic stability in rat liver microsomes assessed as half life; format: ADME, Microsome
[18] = Metabolic stability in rat liver microsomes assessed as intrinsic clearance in hepatocytes measured per million cells; format: ADME, Microsome
[19] = Metabolic stability in rat liver microsomes assessed as intrinsic clearance in liver; format: ADME, Microsome; details: read-out: CLH
[20] = Metabolic stability in dog liver microsomes assessed as half life; format: ADME, Canis lupus familiaris, Microsome
[21] = Metabolic stability in dog liver microsomes assessed as intrinsic clearance in hepatocytes measured per million cells; format: ADME, Canis lupus familiaris, Microsome
[22] = Metabolic stability in dog liver microsomes assessed as intrinsic clearance in liver; format: ADME, Canis lupus familiaris, Microsome; details: read-out: CLH
[23] = Metabolic stability in monkey liver microsomes assessed as half life; format: ADME, Macaca mulatta, Microsome; details: rhesus monkey
[24] = Metabolic stability in monkey liver microsomes assessed as intrinsic clearance in hepatocytes measured per million cells; format: ADME, Macaca mulatta, Microsome; details: rhesus monkey
[25] = Metabolic stability in monkey liver microsomes assessed as intrinsic clearance in liver; format: ADME, Macaca mulatta, Microsome; details: rhesus monkey, read-out: CLH
[26] = Metabolic stability in human liver microsomes assessed as half life; format: ADME, Microsome
[27] = Metabolic stability in human liver microsomes assessed as intrinsic clearance in hepatocytes measured per million cells; format: ADME, Microsome
[28] = Metabolic stability in human liver microsomes assessed as intrinsic clearance in liver; format: ADME, Microsome; details: read-out: CLH
[29] = Toxicity in mouse xenografted with human Pfeiffer cells harboring EZH2 A677G mutant assessed as body weight loss at 100 mg/kg, po qd for 28 days; format: organism-based; details: in vivo, 672 h, time 28 day
[30] = Toxicity in mouse xenografted with human KARPAS-422 cells harboring EZH2 Y641N mutant assessed as body weight loss at 100 mg/kg, po bid for 28 days; format: organism-based; details: in vivo, 672 h, time 28 day
Pfeiffer [31] = assay: Antitumor activity against human Pfeiffer cells harboring EZH2 A677G mutant xenografted in mouse at 100 mg/kg, po qd for 28 days relative to control; format: functional; details: 672 h, time 28 day, read-out: TGI
KARPAS-422 [32] = assay: Antitumor activity against human KARPAS-422 cells harboring EZH2 Y641N mutant xenografted in mouse at 100 mg/kg, po bid for 28 days relative to control; format: functional; details: KARPAS-422, 672 h, time 28 day, read-out: TGI
[33] = Drug concentration in human KARPAS-422 cells harboring EZH2 Y641N mutant xenografted in mouse at 100 mg/kg, po measured after 4 hrs; format: ADME, organism-based; details: KARPAS-422 xenograft tumour, read-out: Ct
[34] = Drug concentration in human KARPAS-422 cells harboring EZH2 Y641N mutant xenografted in mouse at 100 mg/kg, po measured after 8 hrs; format: ADME, organism-based; details: KARPAS-422 xenograft tumour, read-out: Ct
[35] = Toxicity in mouse xenografted with human Pfeiffer cells harboring EZH2 A677G mutant assessed as body weight loss at 25 to 100 mg/kg, po qd for 28 days; format: organism-based; details: in vivo, 672 h, dose 25-100 mg/kg, time 28 day
[36] = Toxicity in mouse xenografted with human KARPAS-422 cells harboring EZH2 Y641N mutant assessed as body weight loss at 50 to 200 mg/kg, po bid for 28 days; format: organism-based; details: in vivo, 672 h, dose 50-200 mg/kg, time 28 day
Pfeiffer [37] = assay: Antitumor activity against human Pfeiffer cells harboring EZH2 A677G mutant xenografted in mouse assessed as reduction in tumor volume at 25 to 100 mg/kg, po qd for 28 days; format: functional; design: scale not given: the % may be the effect or the level left; details: dose 25-100 mg/kg, time 28 day
Pfeiffer [38] = assay: Antitumor activity against human Pfeiffer cells harboring EZH2 A677G mutant xenografted in mouse at 25 mg/kg, po qd for 28 days relative to control; format: functional; details: 672 h, time 28 day, read-out: TGI
Pfeiffer [39] = assay: Antitumor activity against human Pfeiffer cells harboring EZH2 A677G mutant xenografted in mouse at 50 mg/kg, po qd for 28 days relative to control; format: functional; details: 672 h, time 28 day, read-out: TGI
KARPAS-422 [40] = assay: Antitumor activity against human KARPAS-422 cells harboring EZH2 Y641N mutant xenografted in mouse assessed as reduction tumor volume at 50 to 200 mg/kg, po bid for 28 days relative to control; format: functional; design: scale not given: the % may be the effect or the level left; details: dose 50-200 mg/kg, time 28 day
KARPAS-422 [41] = assay: Antitumor activity against human KARPAS-422 cells harboring EZH2 Y641N mutant xenografted in mouse at 50 mg/kg, po bid for 28 days relative to control; format: functional; details: KARPAS-422, 672 h, time 28 day, read-out: TGI
KARPAS-422 [42] = assay: Antitumor activity against human KARPAS-422 cells harboring EZH2 Y641N mutant xenografted in mouse at 200 mg/kg, po bid for 28 days relative to control; format: functional; details: KARPAS-422, 672 h, time 28 day, read-out: TGI

CCN1C(=O)C2(CCOCC2)c2ccc(-c3cc(C(=O)NCc4c(C)cc(C)[nH]c4=O)c(C)c(N(CC)C4CCOCC4)c3)cc21
IC50 (WSUDLCL2): 2.38 nM
IC50 (Pfeiffer [1]): 0.49 nM
IC50 (KARPAS-422 [2]): 1.79 nM
half-life [3]: 27.6 min
half-life [4]: 19.2 min
Cmax [5]: 1750 ng/mL
Cmax [6]: 2580 ng/mL
AUC(0-t) [7]: 1350 ng·h/mL
AUC(0-t) [8]: 818 ng·h/mL
AUC(0-inf) [9]: 1360 ng·h/mL
AUC(0-inf) [10]: 831 ng·h/mL
Vd [11]: 0.803 L/kg
clearance [12]: 43 mL/min/kg
bioavailability [13]: 33%

CCN(c1cc(-c2ccc3c(c2)NC(=O)C32CCN(C)CC2)cc(C(=O)NCc2c(C)cc(C)[nH]c2=O)c1C)C1CCOCC1
IC50 (WSUDLCL2): 3.58 nM
IC50 (Pfeiffer [1]): 1.98 nM
IC50 (KARPAS-422 [2]): 2.19 nM
half-life [4]: 37.2 min
Cmax [5]: 13.5 ng/mL
Cmax [6]: 3680 ng/mL
AUC(0-t) [7]: 3.4 ng·h/mL
AUC(0-t) [8]: 1230 ng·h/mL
AUC(0-inf) [9]: 3.4 ng·h/mL
AUC(0-inf) [10]: 1230 ng·h/mL
Vd [11]: 0.688 L/kg
clearance [12]: 27.9 mL/min/kg
bioavailability [13]: 0.06%

CCN(c1cc(-c2ccc(CN3CCOCC3)cc2)cc(C(=O)NCc2c(C)cc(C)[nH]c2=O)c1C)C1CCOCC1 [TAZEMETOSTAT]
IC50 (WSUDLCL2): 6.44 nM
IC50 (Pfeiffer [1]): 2.26 nM
IC50 (KARPAS-422 [2]): 3.86 nM
half-life [3]: 52.8 min
half-life [4]: 35.4 min
Cmax [5]: 1950 ng/mL
Cmax [6]: 2010 ng/mL
AUC(0-t) [7]: 4340 ng·h/mL
AUC(0-t) [8]: 2710 ng·h/mL
AUC(0-inf) [9]: 4370 ng·h/mL
AUC(0-inf) [10]: 2720 ng·h/mL
Vd [11]: 0.623 L/kg
clearance [12]: 12.4 mL/min/kg
bioavailability [13]: 32%
half-life [14]: 9.6 min
CLH [15]: 144.6 µL/min
CLint scaled [16]: 1720 mL/min/kg
half-life [17]: 18.7 min
CLH [18]: 74.1 µL/min
CLint scaled [19]: 347 mL/min/kg
half-life [20]: 20.8 min
CLH [21]: 66.5 µL/min
CLint scaled [22]: 458 mL/min/kg
half-life [23]: 21 min
CLH [24]: 65.9 µL/min
CLint scaled [25]: 237 mL/min/kg
half-life [26]: 58.7 min
CLH [27]: 23.6 µL/min
CLint scaled [28]: 65.7 mL/min/kg
Activity [29]: Non-Toxic
Activity [30]: Non-Toxic
inhibition in vivo at 100 mg/kg (Pfeiffer [31]): 71.9%
inhibition in vivo at 100 mg/kg (KARPAS-422 [32]): 20.2%
concentration at 4 h [33]: 2340 ng/mL
concentration at 8 h [34]: 416 ng/mL

CCN(c1cc(-c2ccc3c(c2)N(C)CC32CCOCC2)cc(C(=O)NCc2c(C)cc(C)[nH]c2=O)c1C)C1CCOCC1
IC50 (WSUDLCL2): 1.9 nM
IC50 (Pfeiffer [1]): 1.01 nM
IC50 (KARPAS-422 [2]): 1.9 nM
half-life [3]: 10.8 min
half-life [4]: 10.8 min
Cmax [5]: 1280 ng/mL
Cmax [6]: 2790 ng/mL
AUC(0-t) [7]: 566 ng·h/mL
AUC(0-t) [8]: 949 ng·h/mL
AUC(0-inf) [9]: 570 ng·h/mL
AUC(0-inf) [10]: 955 ng·h/mL
Vd [11]: 0.565 L/kg
clearance [12]: 34.6 mL/min/kg
bioavailability [13]: 11.9%

CCN(c1cc(-c2ccc3c(c2)CCC3N2CCOCC2)cc(C(=O)NCc2c(C)cc(C)[nH]c2=O)c1C)C1CCOCC1 (stereo unspecified)
IC50 (WSUDLCL2): 2.36 nM
IC50 (Pfeiffer [1]): 1.73 nM
IC50 (KARPAS-422 [2]): 1.82 nM
half-life [3]: 40.2 min
half-life [4]: 25.2 min
Cmax [5]: 1700 ng/mL
Cmax [6]: 2400 ng/mL
AUC(0-t) [7]: 2960 ng·h/mL
AUC(0-t) [8]: 1610 ng·h/mL
AUC(0-inf) [9]: 2970 ng·h/mL
AUC(0-inf) [10]: 1610 ng·h/mL
Vd [11]: 0.65 L/kg
clearance [12]: 20.7 mL/min/kg
bioavailability [13]: 36.9%
half-life [14]: 17.5 min
CLH [15]: 79.3 µL/min
CLint scaled [16]: 942 mL/min/kg
half-life [17]: 13.9 min
CLH [18]: 99.9 µL/min
CLint scaled [19]: 468 mL/min/kg
half-life [20]: 34.5 min
CLH [21]: 40.2 µL/min
CLint scaled [22]: 276 mL/min/kg
half-life [23]: 18.3 min
CLH [24]: 75.6 µL/min
CLint scaled [25]: 272 mL/min/kg
half-life [26]: 80.3 min
CLH [27]: 17.3 µL/min
CLint scaled [28]: 48 mL/min/kg
Activity [35]: Non-Toxic
Activity [36]: Non-Toxic
Activity (Pfeiffer [37]): 53.1%
inhibition in vivo at 25 mg/kg (Pfeiffer [38]): 53.1%
inhibition in vivo at 50 mg/kg (Pfeiffer [39]): 68.9%
inhibition in vivo at 100 mg/kg (Pfeiffer [31]): 100%
Activity (KARPAS-422 [40]): 16%
inhibition in vivo at 50 mg/kg (KARPAS-422 [41]): 16%
inhibition in vivo at 100 mg/kg (KARPAS-422 [32]): 52.5%
inhibition in vivo at 200 mg/kg (KARPAS-422 [42]): 98%
concentration at 4 h [33]: 8580 ng/mL
concentration at 8 h [34]: 9520 ng/mL

CCN(c1cc(-c2ccc3c(c2)NC(=O)C32CCOCC2)cc(C(=O)NCc2c(C)cc(C)[nH]c2=O)c1C)C1CCOCC1
IC50 (WSUDLCL2): 1.34 nM
IC50 (Pfeiffer [1]): 0.56 nM
IC50 (KARPAS-422 [2]): 0.98 nM
half-life [3]: 37.2 min
half-life [4]: 25.2 min
Cmax [5]: 152 ng/mL
Cmax [6]: 912 ng/mL
AUC(0-t) [7]: 122 ng·h/mL
AUC(0-t) [8]: 331 ng·h/mL
AUC(0-inf) [9]: 125 ng·h/mL
AUC(0-inf) [10]: 340 ng·h/mL
Vd [11]: 2.61 L/kg
clearance [12]: 99.7 mL/min/kg
bioavailability [13]: 7.4%
